Read-outs that look alike come from different tables or passages of the source.
How the values were obtained:
[1] = test system: human cervix cancer cells Hela; assay: Plk Cell Proliferation Inhibition Assay (CCK8, 72 hours); format: cell-based; conditions: Hela cells highly expressing Plk
Source text: The following in vitro assay is to determine the activity of the compounds of the present invention for inhibiting the proliferation of human cervix cancer cells Hela, which has high expression of Plk.
The in vitro cellular assay described here is to determine the activity of the tested compounds for inhibiting the proliferation of cancer cells, which has high expression of Plk. The activity is represented by the […]. The general procedures for the assay are given as follows: The Hela cells highly expressing Plk (Institute of biochemistry and cell biology) were seeded to 96-well cell culture plate at a suitable concentration (exp 3000 cells/ml medium). The cells then were cultured in carbon dioxide (CO2) incubator and grew overnight. Then, the cell culture medium was replaced by fresh one with tested compounds added in it at serial concentrations (general 7 to 9 concentrations). Then the cells were put back to the incubator and cultured for continuous 72 hours. 72 hours later, the activity of the tested compounds for inhibiting the cell proliferation was determined by using CCK8 (cell counting kit-8, Dojindo, NO:CK04) method. IC50 value on tested cells were calculated by the data of inhibition rates of serial concentrations of the tested compounds.

[2] = test system: xenografts of HT-116 human colon cancer; assay: Therapeutic effects against xenografts of HT-116 human colon cancer in nude mice; format: in vivo; conditions: nude mice bearing HT-116 xenografts
Description: The therapeutic effect of Example 1 against xenografts of HT-116 human colon cancer in nude mice was estimated.
Preparation method: the compound of Example 1 was prepared to corresponding concentration by using normal saline.
BALB/cA-nude mice, 6 to 7 weeks old, ♀, purchased from Slaccas Experimental Animal LTD., CO.
Nude mice were hypodermic inoculated HT-116 human colon cancer cell. After tumors grew to 60-150 mm^3, mice were randomly divided into teams (d0).
The volume of tumors and the weigh of the mice were measured and recorded for 2-3 times per week.
The calculation formula of the volume of tumor (V) is: V=½×a×b^2, a: length of tumor, b: width of tumor.

[3] = Pharmacokinetics assay in rats (plasma concentration by LC/MS/MS); format: in vivo; conditions: SD rats, 25 mg/kg; for AUC: read-out: Area Under Curve AUC; for half-life: read-out: Half-Life t½ (converted); for MRT: read-out: Mean Residence Time MRT
Description: The compound 37 of the present invention was administrated intravenous injection or intragastrically to rats to determine the drug concentration in plasma at different time points by LC/MS/MS method. The pharmacokinetic behavior of the compounds of the present invention was studied and evaluated in rats.
The right amount of tested compound was dissolved in 0.5 mL of DMSO, added with 1.5 mL of 0.1 M HCl, then diluted with normal saline to 2.5 mg/mL of suspension before use.
8 Healthy adult adult SD rats, male and female in half, were divided into 2 groups. After an overnight fast, the rats were administered intragastrically or administered via tail intravenous injection at a dose of 25.0 mg/kg.
25 μL of rat plasmas taken at various time points after administration were mixed with 20 μL of internal standard solution and 150 μL methanol for 3 minutes by using a vortexer and the mixture was centrifuged for 10 minutes at 13,500 rpm. 5 μL of the supernatant was analyzed by LC-MS/MS.
Plasma concentration was used as the abscissa, the ratio of chromatographic peak area between the sample and internal standard was used as the ordinate, the linear regression was carried out by the weighted least square method (w=1/x^2). The main pharmacokinetic parameters were calculated by DAS 2.0 software.

[4] = both sexes, rat, plasma, po, intragastric administration
[5] = both sexes, rat, plasma, intravenous injection

IC50 [1] [nM] | SMILES | other results
3 | CC[C@@H]1C(=O)N(C)c2cnc(Nc3ccc(C(=O)NC[C@H]4CN5CCC[C@H]5CO4)c4c3OCC4)nc2N1C1CCCC1 [Example 26, N-[[(3S,8aS)-3,4,6,7,8,8a-Hexahydro-1H-pyrrolo[2,1-c][1,4]oxazin-3-yl]methyl]-7-[[(7R)-8-cyclopentyl-7-ethyl-5-methyl-6-oxo-7H-pteridin-2-yl]amino]-2,3-dihydrobenzofuran-4-carboxamide] | –
1 | CC[C@@H]1C(=O)N(C)c2cnc(Nc3ccc(C(=O)NC[C@H]4CN5CCC[C@@H]5CO4)c4c3OCC4)nc2N1C1CCCC1 [Example 27, N-[[(3S,8aR)-3,4,6,7,8,8a-Hexahydro-1H-pyrrolo[2,1-c][1,4]oxazin-3-yl]methyl]-7-[[(7R)-8-cyclopentyl-7-ethyl-5-methyl-6-oxo-7H-pteridin-2-yl]amino]-2,3-dihydrobenzofuran-4-carboxamide] | –
3 | CC[C@@H]1C(=O)N(C)c2cnc(Nc3ccc(C(=O)NC[C@@H]4CN5CCC[C@@H]5CO4)c4c3OCC4)nc2N1C1CCCC1 [Example 28, N-[[(3R,8aR)-3,4,6,7,8,8a-Hexahydro-1H-pyrrolo[2,1-c][1,4]oxazin-3-yl]methyl]-7-[[(7R)-8-cyclopentyl-7-ethyl-5-methyl-6-oxo-7H-pteridin-2-yl]amino]-2,3-dihydrobenzofuran-4-carboxamide] | –
30 | CC[C@@H]1C(=O)N(C)c2cnc(Nc3ccc(C(=O)NC4CCN(C)CC4)c4c3OC(CN(C)C)C4)nc2N1C1CCCC1 (stereo partly drawn) [Example 29, 7-[[(7R)-8-Cyclopentyl-7-ethyl-5-methyl-6-oxo-7H-pteridin-2-yl]amino]-2-(dimethylaminomethyl)-N-(1-methyl-4-piperidyl)-2,3-dihydrobenzofuran-4-carboxamide] | –
4 | CC[C@@H]1C(=O)N(C)c2cnc(Nc3ccc(C(=O)NC4CCN(C)CC4)c4c3OC(C)C4)nc2N1C1CCCC1 (stereo partly drawn) [Example 30, 7-[[(7R)-8-Cyclopentyl-7-ethyl-5-methyl-6-oxo-7H-pteridin-2-yl]amino]-2-methyl-N-(1-methyl-4-piperidyl)-2,3-dihydrobenzofuran-4-carboxamide] | –
9 | CC[C@@H]1C(=O)N(C)c2cnc(Nc3ccc(C(=O)NC[C@H](O)CN4CCN(C)CC4)c4c3OCC4)nc2N1C(C)C [Example 32, 7-[[(7R)-7-Ethyl-8-isopropyl-5-methyl-6-oxo-7H-pteridin-2-yl]amino]-N-[(2S)-2-hydroxy-3-(4-methylpiperazin-1-yl)propyl]-2,3-dihydrobenzofuran-4-carboxamide] | –
7 | CC[C@@H]1C(=O)N(C)c2cnc(Nc3ccc(C(=O)NC[C@@H](O)CN4CCN(C)CC4)c4c3OCC4)nc2N1C(C)C [Example 33, 7-[[(7R)-7-Ethyl-8-isopropyl-5-methyl-6-oxo-7H-pteridin-2-yl]amino]-N-[(2R)-2-hydroxy-3-(4-methylpiperazin-1-yl)propyl]-2,3-dihydrobenzofuran-4-carboxamide] | –
0.7 | CC[C@@H]1C(=O)N(C)c2cnc(Nc3ccc(C(=O)N[C@H]4CC[C@H](N5CCN(CC6CC6)CC5)CC4)c4c3OCC4)nc2N1C1CCCC1 [Example 34, 7-[[(7R)-8-Cyclopentyl-7-ethyl-5-methyl-6-oxo-7H-pteridin-2-yl]amino]-N-[(trans)-4-[4-(cyclopropylmethyl)piperazin-1-yl]cyclohexyl]-2,3-dihydrobenzofuran-4-carboxamide] | –
2 | CC[C@@H]1C(=O)N(C)c2cnc(Nc3ccc(C(=O)NC[C@@H](CN4CCN(CC5CC5)CC4)OC)c4c3OCC4)nc2N1C1CCCC1 [Example 35, 7-[[(7R)-8-Cyclopentyl-7-ethyl-5-methyl-6-oxo-7H-pteridin-2-yl]amino]-N-[(2S)-3-[4-(cyclopropylmethyl)piperazin-1-yl]-2-methoxy-propyl]-2,3-dihydrobenzofuran-4-carboxamide] | –
7 | CC[C@@H]1C(=O)N(C)c2cnc(Nc3ccc(C(=O)NC[C@@H](CN4CCN(CC5CC5)CC4)OC)c4c3OCC4)nc2N1C(C)C [Example 36, N-[(2S)-3-[4-(Cyclopropylmethyl)piperazin-1-yl]-2-methoxy-propyl]-7-[[(7R)-7-ethyl-8-isopropyl-5-methyl-6-oxo-7H-pteridin-2-yl]amino]-2,3-dihydrobenzofuran-4-carboxamide] | –
0.7 | CC[C@@H]1C(=O)N(C)c2cnc(Nc3ccc(C(=O)N[C@H]4CC[C@H](N5CCN(CC6CC6)CC5)CC4)c4c3OCC4)nc2N1C(C)C [Example 37, N-[(trans)-4-[4-(Cyclopropylmethyl)piperazin-1-yl]cyclohexyl]-7-[[(7R)-7-ethyl-8-isopropyl-5-methyl-6-oxo-7H-pteridin-2-yl]amino]-2,3-dihydrobenzofuran-4-carboxamide] | Clearance CL/F ([3]; intravenous injection): 5.5 ± 0.5 mL/min/kg; bioavailability ([3]; both sexes, rat, plasma, oral, intragastric vs intravenous, read-out: oral bioavailability F): 59.4%; Vd/F ([3]; both sexes, rat, plasma, po, intragastric administration, read-out: Apparent Distribution Volume Vz/F): 13.6 ± 1 L/kg; AUC [3, 4]: 45600 ± 9230 ng·h/mL; CL/F ([3]; both sexes, rat, plasma, po, intragastric administration, read-out: Clearance CL/F (converted)): 9.5 mL/min/kg; half-life [3, 4]: 17.2 ± 4.4 h; MRT [3, 4]: 26.1 ± 5 h; Cmax ([3]; both sexes, rat, plasma, po, intragastric administration, read-out: Plasma Conc. Cmax): 1860 ± 150 ng/mL; AUC [3, 5]: 76700 ± 6200 ng·h/mL; half-life [3, 5]: 17.3 ± 3.3 h; MRT [3, 5]: 22.8 ± 4.3 h
2 | CC[C@@H]1C(=O)N(C)c2cnc(Nc3ccc(C(=O)NC[C@@H](CN4CCN(C)CC4)OC)c4c3OCC4)nc2N1C1CCCC1 [Example 38, 7-[[(7R)-8-Cyclopentyl-7-ethyl-5-methyl-6-oxo-7H-pteridin-2-yl]amino]-N-[(2S)-2-methoxy-3-(4-methylpiperazin-1-yl)propyl]-2,3-dihydrobenzofuran-4-carboxamide] | –
6 | CC[C@@H]1C(=O)N(C)c2cnc(Nc3ccc(C(=O)NC[C@@H](CN4CCN(C)CC4)OC)c4c3OCC4)nc2N1C(C)C [Example 39, 7-[[(7R)-7-Ethyl-8-isopropyl-5-methyl-6-oxo-7H-pteridin-2-yl]amino]-N-[(2S)-2-methoxy-3-(4-methylpiperazin-1-yl)propyl]-2,3-dihydrobenzofuran-4-carboxamide] | –
2 | CC[C@@H]1C(=O)N(C)c2cnc(Nc3ccc(C(=O)NC4CCN(C)CC4)c4c3OC(COC)C4)nc2N1C1CCCC1 (stereo partly drawn) [Example 40, 7-[[(7R)-8-Cyclopentyl-7-ethyl-5-methyl-6-oxo-7H-pteridin-2-yl]amino]-2-(methoxymethyl)-N-(1-methyl-4-piperidyl)-2,3-dihydrobenzofuran-4-carboxamide] | –
5 | CC[C@@H]1C(=O)N(C)c2cnc(Nc3ccc(C(=O)N[C@H]4CC[C@@H](N5CCN(CC6CC6)CC5)CC4)c4c3OCC4)nc2N1C(C)C [Example 44, N-[(cis)-4-[4-(Cyclopropylmethyl)piperazin-1-yl]cyclohexyl]-7-[[(7R)-7-ethyl-8-isopropyl-5-methyl-6-oxo-7H-pteridin-2-yl]amino]-2,3-dihydrobenzofuran-4-carboxamide] | –

SMILES | IC50 [1] [nM] | other results
CC[C@@H]1C(=O)N(C)c2cnc(Nc3ccc(C(=O)NC4CCN(C)CC4)c4c3OCC4)nc2N1C1CCCC1 [Example 1, 7-[[(7R)-8-Cyclopentyl-7-ethyl-5-methyl-6-oxo-7H-pteridin-2-yl]amino]-N-(1-methyl-piperidyl)-2,3-dihydrobenzofuran-4-carboxamide] | 0.9 | toxicity (in words) [2]: less toxity
